Experimental data as given in patent publication US11371097B2, “Articles for diagnosis of liver fibrosis” (THE GOVERNMENT OF THE UNITED STATES, as represented by THE …, priority 2015, dated 2022).
“And” between values parts separate entries of the source, which are not always exact repeats. Equal values may be shown once. Read-outs that look alike come from different tables or passages of the source.

How the values were obtained:
liver [1] = conditions: cited from earlier work
liver [2] = assay type: in vivo, Male Sprague-Dawley rats
Description: All chemical compounds were diluted in corn oil (CAS No. 8001-30-7) (MP Biomedicals, LLC (Solon, Ohio)). The dose volume was 5 mL/kg. Doses were selected based on doses published in the DrugMatrix database, the National Toxicology Program reports, and ATSDR reports.
(§1) In vivo rat experiments were performed at Integrated Laboratory Systems (ILS, Research Triangle Park, NC). ILS's Institutional Animal Care and Use Committee approved all experimental procedures. Research was conducted in compliance with the Animal Welfare Act, and other Federal statutes and regulations relating to animals and experiments involving animals and adheres to principles stated in the “Guide for Care and Use of Laboratory Animals” as prepared by the Committee on Care and Use of Laboratory Animals of the Institute of Laboratory Animal Resources, National Research Council in facilities that are fully accredited by the Association for Assessment and Accreditation of Laboratory Animal Care, International. Male Sprague-Dawley rats (CD IGS [CRL:CD (SD)]) were purchased from Charles River Laboratories (Stone Ridge, N.Y.). Rats weighing 215-245 g (8 weeks old) were used. Briefly, rats were housed two per cage with a rat tunnel enrichment device (Bio-Serve, Frenchtown, N.J.). Rats were fed a Purina Rodent Diet No. 5002 (Ralston Purina Co., St. Louis, Mo.), supplied ad libitum. Animals received reverse osmosis-treated tap water (City of Durham, N.C.) ad libitum, which was changed at least once weekly. Controls in the animal rooms were set to maintain temperatures between 20-In vivo rat experiments were performed at Integrated Laboratory Systems (ILS, Research Triangle Park, NC). ILS's Institutional Animal Care and Use Committee approved all experimental procedures. Research was conducted in compliance with the Animal Welfare Act, and other Federal statutes and regulations relating to animals and experiments involving animals and adheres to principles stated in the “Guide for Care and Use of Laboratory Animals” as prepared by the Committee on Care and Use of Laboratory Animals of the Institute of Laboratory Animal Resources, National Research Council in facilities that are fully accredited by the Association for Assessment and Accreditation of Laboratory Animal Care, International. Male Sprague-Dawley rats (CD IGS [CRL:CD (SD)]) were purchased from Charles River Laboratories (Stone Ridge, N.Y.). Rats weighing 215-245 g (8 weeks old) were used. Briefly, rats were housed two per cage with a rat tunnel enrichment device (Bio-Serve, Frenchtown, N.J.). Rats were fed a Purina Rodent Diet No. 5002 (Ralston Purina Co., St. Louis, Mo.), supplied ad libitum. Animals received reverse osmosis-treated tap water (City of Durham, N.C.) ad libitum, which was changed at least once weekly. Controls in the animal rooms were set to maintain temperatures between 20-25° C. with a relative humidity of 30-70% and a 12-hour light/12-hour dark cycle, lights on at 6:00 AM. Clinically healthy animals were assigned to dose groups using a procedure that stratifies animals across groups by body weight such that mean body weight of each group was not statistically different from any other group using analysis of variance (Statistical Analysis System version 9.2, SAS Institute, Cary, N.C.). Animals were dosed by oral gavage for five consecutive days (+10 minutes from the previous day's dose administration time). Volume was based upon daily body weight.
Animals were observed cageside one hour following daily dose administration, then 1-2 times per day during dosing regimens. Body weights were measured daily prior to dose administration, and prior to euthanasia. Twenty-four hours after the final dose administration, animals were anesthetized with isoflurane then euthanized by exsanguination followed by decapitation. Livers were harvested at necropsy and weighed to within 0.1 g. One half of the left lobe of the liver was fixed in 10% formalin. […]

Tgfb1 = assay: qPCR of liver RNA: Tgfb1; assay type: in vivo, Male Sprague-Dawley rats; conditions: liver, across dose groups, vs control
Description: (§2) Working on dry ice, a portion (−10 mg) of flash-frozen liver was cut from each sample and transferred to a clean, labeled tube. Total RNA was then isolated using Qiagen's miRNeasy 96 kit (Qiagen, Valencia, Calif.) following manufacturer's instructions with a final elution volume of −150 μL (2×75 μL). The quality and quantity of RNA samples were evaluated with a 2100 Bioanalyzer (Agilent Technologies, Santa Clara, Calif.), using the Agilent RNA 6000 Nano Reagents and a multiwell NanoDrop 8000 spectrophotometer (Thermo Fisher Scientific, Waltham, Mass.).
(§3) Using 1 μg RNA input, cDNA was generated using a QuantiTect Reverse Transcription kit (Qiagen, Valencia, Calif.) following manufacturer's instructions. Applied Biosystems SYBR Green Master Mix was used in a 20 μL qPCR reaction with 2 μL of cDNA template and a 2.tM final concentration of each primer. A total of five genes were targeted (Gapdh, Actb, Timp1, Tgfbl, and Psma5), two of which served as the endogenous controls (Gapdh and Actb). An Applied Biosystems 7500 Real-Time PCR System (Applied Biosystems, Foster City, Calif.) was used for thermal cycling and fluorescence detection using the default settings for Quantitation-Comparative CT with SYBR® . . . Green Reagents which uses the following scheme: 95° C. for 10 minutes followed by 40 cycles of: 95° C. for 15 seconds, 60° C. for 1 minute, and a fluorescence signal read. Al! primers were obtained from Integrated DNA Technology's PrimeTime qPCR primer library (Integrated DNA Technologies, Coralville, Iowa).
Data was imported into GraphPad Prism (GraphPad Software, Inc.; LaJolla, Calif.) for analysis. A nonparametric Kruskal-Wallis analysis of variance by ranks with post hoc […] multiple comparison test was used to determine statistical difference among dose groups. A one sample t-test compared to a theoretical mean of 1.0 fold change was used to determine difference from control for each dose group. A p-value<0.05 was used as a cutoff for statistical significance.

[3] = assay type: in vivo, Male Sprague-Dawley rats
Description: as §1
Animals were observed cageside one hour following daily dose administration, then 1-2 times per day during dosing regimens. Body weights were measured daily prior to dose administration, and prior to euthanasia. Twenty-four hours after the final dose administration, animals were anesthetized with isoflurane then euthanized by exsanguination followed by decapitation. Livers were harvested at necropsy and weighed to within 0.1 g. One half of the left lobe of the liver was fixed in 10% formalin. The remaining half of the left lobe of the liver was flash frozen in liquid nitrogen, then stored below −70° C. Liver specimens were frozen in less than three minutes from time of death.

[4] = system: 67 genes on the fibrosis gene panel; assay: Multiplexed fibrosis gene panel (QuantiGene 2.0 Plex / Bioplex) on liver RNA; conditions: liver, 67 genes
Timp1 = assay: qPCR of liver RNA: Timp1; assay type: in vivo, Male Sprague-Dawley rats; conditions: across dose groups, vs control
Description: as §2
as §3, with “Al! primers were obtained from Integrated DNA Technology's PrimeTime qPCR primer library (Integrated DNA Technologies, Coralville, Iowa).” left out

[5] = 5-7 days oral administration or intraperitoneal injection, various doses
[6] = Allyl Alcohol 9.7 mg/kg, animals 9-12
[7] = Allyl Alcohol 45 mg/kg, animals 17, 18, 20
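For Cytoplasmic Alteration in this document: Severity grades from None 0% through Minimal Mild Moderate to Marked over 80% tissue affected.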
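For Inflammation in this document: Severity grades from None 0% through Minimal Mild Moderate to Marked over 80% tissue affected.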
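For Vacuolation in this document: Severity grades from None 0% through Minimal Mild Moderate to Marked over 80% tissue affected.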

S=C=Nc1cccc2ccccc12 [1-naphthyl isothiocyanate]
Fibrosis score in the DrugMatrix study (liver [1]; rat, in vivo): scored fibrosis-positive

CC(C)(Oc1ccc(CCNC(=O)c2ccc(Cl)cc2)cc1)C(=O)O [bezafibrate]
Fibrosis score in the DrugMatrix study (liver [1]; [5]): scored fibrosis-positive

COc1ccccc1OCCNCC(O)COc1cccc2[nH]c3ccccc3c12 (stereo not shown) [carvedilol]
Fibrosis score in the DrugMatrix study (liver [1]; [5]): scored fibrosis-positive

CC=CC(=O)N(CC)c1ccccc1C [crotamiton]
Fibrosis score in the DrugMatrix study (liver [1]; [5]): scored fibrosis-positive

C[C@]12CC[C@H]3[C@@H](CCC4=CC(=O)CC[C@@]43C)[C@@H]1CC[C@@H]2O [testosterone]
Fibrosis score in the DrugMatrix study (liver [1]; [5]): scored fibrosis-positive

allyl alcohol
Bile Duct Hyperplasia and Fibroplasia (liver [2]; [6]): 0
Cytoplasmic Alteration (liver [2]; [6]): 1
Inflammation (liver [2]; [6]): 0
Necrosis (liver [2]; [6]): 0
Vacuolation (liver [2]; [6]): 0
Vacuolation (liver [2]; Allyl Alcohol 20.9 mg/kg, animals 13-16): 0
Bile Duct Hyperplasia and Fibroplasia (liver [2]; [7]): 3
Cytoplasmic Alteration (liver [2]; [7]): 3 and 4 and 2
Inflammation (liver [2]; [7]): 3 and 2
Necrosis (liver [2]; [7]): 3 and 4
Vacuolation (liver [2]; [7]): 0
Combined histopathological scores as percent of animals with pathology (liver [2]; across dose groups, five days (figure legend)): dose-dependent increase in severe pathology
Fibrosis histopathology in the present study (liver [2]; high doses): associated with fibrosis histopathology
Fibrosis histopathology in the present study (liver [2]; high doses, listed as Allyl alcohol): scored positive for fibrosis
Fibrosis histopathology (liver [2]; low-dose (carbon tetrachloride: all doses)): without fibrosis
Degree of fibrosis (liver [2]; oral gavage five days, across doses): dose-dependent increase in the degree of fibrosis
Histopathology: bile duct hyperplasia, fibrosis, necrosis (liver [2]; oral gavage five days, high doses): caused bile duct hyperplasia comorbid with fibrosis and necrosis
Tgfb1 gene expression by qPCR (Tgfb1): showed a dose-dependent increase
Fibrosis score in the DrugMatrix study (liver [1]; [5]): scored fibrosis-positive
Body weight gain over the five experimental dosing days ([3]; dose groups): increase in body weight gain
Body weight change over the five-day exposure interval ([3]; highest dose(s)): gained less weight over the five-day exposure interval than their low-dose counterparts
Hierarchical biclustering of log2 fold-changes in panel gene expression [4]: clustered with the non-fibrogenic chemical-dose groups
Timp1 gene expression by qPCR (Timp1): showed a dose-dependent increase
